Experimental data published in ChEMBL document CHEMBL4507311, “Data for DCP probe A-1155463” (2021).
Calls of active or inactive are those of the source. The rule behind the calls is not given here.

How the values were obtained:
[1] = biological target: P2X receptor (Rattus norvegicus) (UniProt P51579+P49653+P51578+Q64663+P47824+P51577+P49654); assay: P2X Eurofins-Cerep binding assay; format: protein assay; parameters: ligand concentration 3 nM; details: filed as agonist, Compound concentration 10.0 uM
[2] = biological target: T1, 5-hydroxytryptamine receptor 1A (Homo sapiens) (UniProt P08908); assay: 5-HT1A (h) Eurofins-Cerep binding assay; parameters: ligand concentration 0.5 nM; details: filed as agonist, Compound concentration 10.0 uM
T1 sequence (whole entry): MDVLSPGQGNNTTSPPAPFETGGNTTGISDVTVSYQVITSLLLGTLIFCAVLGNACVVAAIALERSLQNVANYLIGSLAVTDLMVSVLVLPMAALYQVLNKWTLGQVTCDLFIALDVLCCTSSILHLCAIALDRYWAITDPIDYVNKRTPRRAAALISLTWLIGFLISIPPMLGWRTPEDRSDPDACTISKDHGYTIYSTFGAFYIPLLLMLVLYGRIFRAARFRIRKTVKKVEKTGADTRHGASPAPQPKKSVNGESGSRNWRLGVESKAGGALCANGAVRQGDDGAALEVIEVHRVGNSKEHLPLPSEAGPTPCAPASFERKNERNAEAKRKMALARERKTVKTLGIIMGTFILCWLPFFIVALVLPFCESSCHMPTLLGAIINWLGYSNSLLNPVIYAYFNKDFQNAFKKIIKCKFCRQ

[3] = biological target: L-type Ca2+ channel (dihydropyridine site) (Rattus norvegicus, UniProt P22002+P27732+Q02485); assay: Ca2+ channel (L, dihydropyridine site) Eurofins-Cerep binding assay; format: protein assay; parameters: incubation time 90 min, incubation temperature RT, ligand concentration 0.1 nM; details: rat cerebral cortex, probe [3H]nitrendipine (0.1 nM), compound concentration 10 uM, read-out: % Inhibition of Control Specific Binding (Mean n=2)
[4] = biological target: Cannabinoid receptor 1 (Homo sapiens) (UniProt P21554); assay: CB1 (h) Eurofins-Cerep binding assay; parameters: ligand concentration 0.5 nM; details: filed as agonist, Compound concentration 10.0 uM
[5] = biological target: 5'-AMP-activated protein kinase catalytic subunit alpha-2 (Homo sapiens) (UniProt P54646); details: Compound concentration 1000.0 nM
[6] = biological target: Mitotic checkpoint serine/threonine-protein kinase BUB1 (Homo sapiens) (UniProt O43683); details: Compound concentration 1000.0 nM
[7] = biological target: Histamine H1 receptor (Homo sapiens) (UniProt P35367); details: Compound concentration 10.0 uM
[8] = tested on: Epidermal growth factor receptor (Homo sapiens), P00533 [L858R]; details: Compound concentration 1000.0 nM
[9] = tested on: Phosphatidylinositol 4,5-bisphosphate 3-kinase catalytic subunit alpha isoform (Homo sapiens), P42336 [E545K]; details: Compound concentration 1000.0 nM
[10] = biological target: 5-hydroxytryptamine receptor 2A (Homo sapiens) (UniProt P28223); details: Compound concentration 10.0 uM
[11] = biological target: Tyrosine-protein kinase receptor UFO (Homo sapiens) (UniProt P30530); details: Compound concentration 1000.0 nM
[12] = biological target: Tyrosine-protein kinase Mer (Homo sapiens) (UniProt Q12866); details: Compound concentration 1000.0 nM
[13] = biological target: Mitogen-activated protein kinase 1 (Homo sapiens) (UniProt P28482); details: Compound concentration 1000.0 nM
[14] = biological target: Serine/threonine-protein kinase WNK4 (Homo sapiens) (UniProt Q96J92); details: Compound concentration 1000.0 nM
[15] = biological target: Fibroblast growth factor receptor 4 (Homo sapiens) (UniProt P22455); details: Compound concentration 1000.0 nM
[16] = biological target: Cyclin-G-associated kinase (Homo sapiens) (UniProt O14976); details: Compound concentration 1000.0 nM
[17] = biological target: Mitogen-activated protein kinase kinase kinase 7 (Homo sapiens) (UniProt O43318); details: Compound concentration 1000.0 nM
[18] = biological target: Tyrosine-protein kinase CSK (Homo sapiens) (UniProt P41240); details: Compound concentration 1000.0 nM
[19] = biological target: GABA-A receptor; anion channel (Rattus norvegicus) (UniProt O09028+P15431+P18506+P18508+P19969+P20236+P23574+P23576+P28471+P28473+P30191+P62813+P63079+P63138+Q91ZM7+Q9ES14); details: Compound concentration 10.0 uM
[20] = biological target: Homeodomain-interacting protein kinase 1 (Homo sapiens) (UniProt Q86Z02); details: Compound concentration 1000.0 nM
[21] = biological target: Casein kinase I isoform delta (Homo sapiens) (UniProt P48730); details: Compound concentration 1000.0 nM
[22] = biological target: Cyclin-dependent kinase 4 (Homo sapiens) (UniProt P11802); details: Compound concentration 1000.0 nM
[23] = biological target: Serine/threonine-protein kinase PRP4 homolog (Homo sapiens) (UniProt Q13523); details: Compound concentration 1000.0 nM
[24] = biological target: Serine/threonine-protein kinase tousled-like 2 (Homo sapiens) (UniProt Q86UE8); details: Compound concentration 1000.0 nM
[25] = biological target: 5-hydroxytryptamine receptor 2B (Homo sapiens) (UniProt P41595); details: Compound concentration 10.0 uM
[26] = biological target: Insulin receptor-related protein (Homo sapiens) (UniProt P14616); details: Compound concentration 1000.0 nM
[27] = biological target: Phosphatidylinositol 4-phosphate 5-kinase type-1 alpha (Homo sapiens) (UniProt Q99755); details: Compound concentration 1000.0 nM
[28] = tested on: eIF-2-alpha kinase GCN2 (Homo sapiens), Q9P2K8 [S808G]; details: Compound concentration 1000.0 nM
[29] = biological target: Phosphatidylinositol 4-kinase beta (Homo sapiens) (UniProt Q9UBF8); details: Compound concentration 1000.0 nM
[30] = biological target: Cyclin-dependent kinase 2 (Homo sapiens) (UniProt P24941); details: Compound concentration 1000.0 nM
[31] = biological target: Cyclin-dependent kinase 4 (Homo sapiens) (UniProt P11802); details: Compound concentration 1000.0 nM; remark: listed apart in the source
[32] = biological target: Dual serine/threonine and tyrosine protein kinase (Homo sapiens) (UniProt Q6XUX3); details: Compound concentration 1000.0 nM
[33] = biological target: Ephrin type-A receptor 8 (Homo sapiens) (UniProt P29322); details: Compound concentration 1000.0 nM
[34] = biological target: Focal adhesion kinase 1 (Homo sapiens) (UniProt Q05397); details: Compound concentration 1000.0 nM
[35] = biological target: Calcium/calmodulin-dependent protein kinase type 1B (Homo sapiens) (UniProt Q6P2M8); details: Compound concentration 1000.0 nM
NCI-H146 = assay: CellTiter-Glo Luminescent Cell Viability Assay (BCL-XL dependent cell line H146); format: functional, cell-based; details: Homo sapiens
[36] = tested on: Receptor-type tyrosine-protein kinase FLT3 (Homo sapiens), P36888 [UNDEFINED MUTATION]; details: Compound concentration 1000.0 nM

Chain of Cyclin-dependent kinase 4 (Homo sapiens) (P11802 whole entry): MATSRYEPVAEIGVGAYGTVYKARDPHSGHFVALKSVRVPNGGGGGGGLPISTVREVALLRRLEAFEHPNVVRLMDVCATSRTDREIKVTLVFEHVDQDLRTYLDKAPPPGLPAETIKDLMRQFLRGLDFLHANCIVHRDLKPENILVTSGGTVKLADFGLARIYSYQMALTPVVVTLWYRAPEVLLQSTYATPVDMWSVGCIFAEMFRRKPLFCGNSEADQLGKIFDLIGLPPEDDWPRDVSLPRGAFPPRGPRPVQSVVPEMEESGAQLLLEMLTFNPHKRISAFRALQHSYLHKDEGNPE
Chain of Cannabinoid receptor 1 (Homo sapiens) (P21554 whole entry): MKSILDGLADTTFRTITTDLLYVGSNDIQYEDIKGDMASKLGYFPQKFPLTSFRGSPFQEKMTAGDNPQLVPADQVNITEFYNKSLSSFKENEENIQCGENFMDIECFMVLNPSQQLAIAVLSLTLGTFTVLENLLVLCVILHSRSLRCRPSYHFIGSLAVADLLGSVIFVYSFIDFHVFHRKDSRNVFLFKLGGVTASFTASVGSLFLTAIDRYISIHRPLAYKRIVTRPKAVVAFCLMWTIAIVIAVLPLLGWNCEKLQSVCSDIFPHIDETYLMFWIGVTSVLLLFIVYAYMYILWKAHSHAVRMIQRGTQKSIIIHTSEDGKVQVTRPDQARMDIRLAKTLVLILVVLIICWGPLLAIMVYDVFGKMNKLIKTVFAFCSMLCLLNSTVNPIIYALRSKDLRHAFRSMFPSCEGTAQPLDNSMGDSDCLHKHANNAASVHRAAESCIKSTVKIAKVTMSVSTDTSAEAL
Chain of Calcium/calmodulin-dependent protein kinase type 1B (Homo sapiens) (Q6P2M8 whole entry): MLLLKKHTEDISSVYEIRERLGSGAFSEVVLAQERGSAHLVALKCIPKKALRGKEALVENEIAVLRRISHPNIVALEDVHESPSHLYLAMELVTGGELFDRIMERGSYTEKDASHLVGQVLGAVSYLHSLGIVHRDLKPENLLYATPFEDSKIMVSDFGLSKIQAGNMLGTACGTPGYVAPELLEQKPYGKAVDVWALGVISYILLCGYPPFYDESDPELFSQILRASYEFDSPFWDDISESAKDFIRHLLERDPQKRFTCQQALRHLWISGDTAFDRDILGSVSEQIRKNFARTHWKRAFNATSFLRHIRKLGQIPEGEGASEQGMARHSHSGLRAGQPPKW
Chain of Mitogen-activated protein kinase kinase kinase 7 (Homo sapiens) (O43318 whole entry): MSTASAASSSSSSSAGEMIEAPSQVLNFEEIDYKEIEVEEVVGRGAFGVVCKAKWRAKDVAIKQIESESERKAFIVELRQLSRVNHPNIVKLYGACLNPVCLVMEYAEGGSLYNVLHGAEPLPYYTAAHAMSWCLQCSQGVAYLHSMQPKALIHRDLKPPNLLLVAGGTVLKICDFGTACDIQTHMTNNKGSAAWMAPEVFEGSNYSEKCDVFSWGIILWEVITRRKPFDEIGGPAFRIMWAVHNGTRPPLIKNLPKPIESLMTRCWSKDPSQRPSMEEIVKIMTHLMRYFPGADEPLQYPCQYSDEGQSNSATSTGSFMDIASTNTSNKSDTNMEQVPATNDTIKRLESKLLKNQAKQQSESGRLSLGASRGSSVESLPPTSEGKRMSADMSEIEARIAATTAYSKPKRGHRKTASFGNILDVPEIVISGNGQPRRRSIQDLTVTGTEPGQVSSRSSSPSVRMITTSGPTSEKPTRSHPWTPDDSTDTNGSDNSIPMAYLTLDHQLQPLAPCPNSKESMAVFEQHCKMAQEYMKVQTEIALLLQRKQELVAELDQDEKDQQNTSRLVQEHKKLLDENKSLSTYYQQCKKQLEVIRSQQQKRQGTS
Chain of Serine/threonine-protein kinase PRP4 homolog (Homo sapiens) (Q13523 whole entry): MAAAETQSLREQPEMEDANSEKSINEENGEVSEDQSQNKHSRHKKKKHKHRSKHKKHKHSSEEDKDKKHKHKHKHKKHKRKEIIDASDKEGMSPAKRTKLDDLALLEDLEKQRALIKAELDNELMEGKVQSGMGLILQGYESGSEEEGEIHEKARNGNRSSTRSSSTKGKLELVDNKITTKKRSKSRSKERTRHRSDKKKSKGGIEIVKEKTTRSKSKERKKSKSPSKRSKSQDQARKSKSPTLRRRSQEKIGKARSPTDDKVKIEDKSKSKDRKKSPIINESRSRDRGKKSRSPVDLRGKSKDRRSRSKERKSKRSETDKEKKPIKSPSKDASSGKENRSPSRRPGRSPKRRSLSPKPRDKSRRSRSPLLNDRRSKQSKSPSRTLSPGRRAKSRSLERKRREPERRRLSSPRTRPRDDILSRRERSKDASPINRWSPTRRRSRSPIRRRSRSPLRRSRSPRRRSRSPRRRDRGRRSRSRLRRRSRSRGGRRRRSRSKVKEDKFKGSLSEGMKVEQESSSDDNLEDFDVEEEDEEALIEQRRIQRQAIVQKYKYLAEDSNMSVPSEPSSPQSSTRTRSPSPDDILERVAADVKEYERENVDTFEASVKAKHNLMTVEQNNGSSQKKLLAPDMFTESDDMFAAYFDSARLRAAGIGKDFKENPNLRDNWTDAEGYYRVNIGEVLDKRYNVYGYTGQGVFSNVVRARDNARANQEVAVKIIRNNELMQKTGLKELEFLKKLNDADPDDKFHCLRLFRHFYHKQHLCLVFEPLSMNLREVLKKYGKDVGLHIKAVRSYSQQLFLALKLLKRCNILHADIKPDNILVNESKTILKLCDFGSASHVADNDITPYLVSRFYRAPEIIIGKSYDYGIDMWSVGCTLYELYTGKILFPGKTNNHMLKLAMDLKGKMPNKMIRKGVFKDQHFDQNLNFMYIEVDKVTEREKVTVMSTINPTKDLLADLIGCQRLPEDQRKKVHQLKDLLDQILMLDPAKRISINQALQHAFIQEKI
Chain of Histamine H1 receptor (Homo sapiens) (P35367 whole entry): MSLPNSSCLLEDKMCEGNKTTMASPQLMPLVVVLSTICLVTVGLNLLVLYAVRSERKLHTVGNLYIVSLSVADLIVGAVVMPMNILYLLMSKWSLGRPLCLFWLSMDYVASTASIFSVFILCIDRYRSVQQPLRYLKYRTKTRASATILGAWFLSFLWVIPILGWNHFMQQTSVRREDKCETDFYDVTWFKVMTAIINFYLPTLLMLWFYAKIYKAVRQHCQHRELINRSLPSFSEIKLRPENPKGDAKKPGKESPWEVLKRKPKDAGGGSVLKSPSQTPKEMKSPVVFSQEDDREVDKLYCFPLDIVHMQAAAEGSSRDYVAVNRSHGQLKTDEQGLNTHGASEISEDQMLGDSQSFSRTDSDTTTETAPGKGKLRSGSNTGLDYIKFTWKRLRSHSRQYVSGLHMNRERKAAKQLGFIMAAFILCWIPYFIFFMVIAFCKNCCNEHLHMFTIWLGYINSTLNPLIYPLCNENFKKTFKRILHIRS
Chain of Mitogen-activated protein kinase 1 (Homo sapiens) (P28482 whole entry): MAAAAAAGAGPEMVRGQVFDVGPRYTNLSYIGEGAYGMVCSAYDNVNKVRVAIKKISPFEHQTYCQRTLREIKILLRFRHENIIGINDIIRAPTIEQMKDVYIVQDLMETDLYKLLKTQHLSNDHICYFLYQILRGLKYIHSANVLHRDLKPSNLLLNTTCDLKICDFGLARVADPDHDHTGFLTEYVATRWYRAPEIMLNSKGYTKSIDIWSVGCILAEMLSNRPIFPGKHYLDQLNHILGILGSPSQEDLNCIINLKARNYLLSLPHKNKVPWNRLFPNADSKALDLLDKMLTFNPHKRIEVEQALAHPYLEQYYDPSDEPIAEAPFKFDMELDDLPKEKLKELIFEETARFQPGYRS
Chain of Cyclin-G-associated kinase (Homo sapiens) (O14976 whole entry): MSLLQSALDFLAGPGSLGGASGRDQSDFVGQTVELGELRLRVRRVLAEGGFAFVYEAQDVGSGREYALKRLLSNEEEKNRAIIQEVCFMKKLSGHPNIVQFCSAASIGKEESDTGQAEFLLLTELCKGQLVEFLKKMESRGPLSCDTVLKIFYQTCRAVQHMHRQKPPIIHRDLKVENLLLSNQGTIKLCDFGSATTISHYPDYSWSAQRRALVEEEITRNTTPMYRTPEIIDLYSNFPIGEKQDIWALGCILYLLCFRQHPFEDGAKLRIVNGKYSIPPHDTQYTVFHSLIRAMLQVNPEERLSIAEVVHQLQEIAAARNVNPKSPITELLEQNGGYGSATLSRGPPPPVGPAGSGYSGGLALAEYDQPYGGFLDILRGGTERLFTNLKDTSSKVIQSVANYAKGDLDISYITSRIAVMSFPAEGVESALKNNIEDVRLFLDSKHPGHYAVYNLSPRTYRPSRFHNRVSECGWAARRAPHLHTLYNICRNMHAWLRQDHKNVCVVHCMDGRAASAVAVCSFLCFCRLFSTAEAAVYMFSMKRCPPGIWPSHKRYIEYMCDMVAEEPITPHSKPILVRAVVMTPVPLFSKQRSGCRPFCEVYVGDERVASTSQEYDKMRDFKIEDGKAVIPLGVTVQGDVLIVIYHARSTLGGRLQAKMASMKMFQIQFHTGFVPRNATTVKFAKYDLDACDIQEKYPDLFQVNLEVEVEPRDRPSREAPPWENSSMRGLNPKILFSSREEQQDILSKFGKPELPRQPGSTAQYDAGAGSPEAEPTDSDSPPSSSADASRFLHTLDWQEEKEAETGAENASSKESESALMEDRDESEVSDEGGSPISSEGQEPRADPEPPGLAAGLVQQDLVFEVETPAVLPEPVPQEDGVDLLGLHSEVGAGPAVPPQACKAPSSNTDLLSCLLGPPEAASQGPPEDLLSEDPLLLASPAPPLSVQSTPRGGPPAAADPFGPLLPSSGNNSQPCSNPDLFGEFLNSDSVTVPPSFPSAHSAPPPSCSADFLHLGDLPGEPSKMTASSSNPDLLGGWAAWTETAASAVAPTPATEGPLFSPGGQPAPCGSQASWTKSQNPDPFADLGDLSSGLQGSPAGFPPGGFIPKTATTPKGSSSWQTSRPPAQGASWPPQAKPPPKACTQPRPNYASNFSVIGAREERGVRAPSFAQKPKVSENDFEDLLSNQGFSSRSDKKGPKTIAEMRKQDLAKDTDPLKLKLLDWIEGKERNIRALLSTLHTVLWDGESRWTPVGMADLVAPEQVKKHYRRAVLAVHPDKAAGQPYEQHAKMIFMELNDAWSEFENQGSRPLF

O=C(Nc1nc2ccccc2s1)c1cccc2c1CN(c1nc(C(=O)O)c(CCOc3ccc(-n4ncc5cncnc54)cc3)s1)CC2 [A-1107969]
% Inhibition of Control Specific Binding (Mean n=2) [1]: -0.4%
% Inhibition of Control Specific Binding (Mean n=2) [2]: -1%
inhibition at 90 min, 10 µM [3]: -2.2%
% Inhibition of Control Specific Binding (Mean n=2) [4]: -4.1%

CN(C)CC#Cc1ccc(OCCCc2sc(N3CCc4cccc(C(=O)Nc5nc6ccccc6s5)c4C3)nc2C(=O)O)c(F)c1 [A-1155463]
residual activity [5]: 99%
residual activity [6]: 81%
inhibition [7]: 39.8%
% Inhibition of Control Specific Binding (Mean n=2) [1]: 13.5%
% Inhibition of Control Specific Binding (Mean n=2) [2]: 32.2%
residual activity [8]: 89%
residual activity [9]: 95%
inhibition [10]: 40.1%
residual activity [11]: 92%
inhibition at 90 min, 10 µM [3]: -21.8%
residual activity [12]: 100%
residual activity [13]: 100%
residual activity [14]: 81%
% Inhibition of Control Specific Binding (Mean n=2) [4]: 2.6%
residual activity [15]: 100%
residual activity [16]: 100%
residual activity [17]: 100%
residual activity [18]: 90%
inhibition [19]: 11.3%
residual activity [20]: 75%
residual activity [21]: 95%
residual activity [22]: 100%
residual activity [23]: 100%
residual activity [24]: 100%
inhibition [25]: 5.67%
residual activity [26]: 90%
residual activity [27]: 100%
residual activity [28]: 83%
residual activity [29]: 100%
residual activity [30]: 100%
residual activity [31]: 100%
residual activity [32]: 100%
residual activity [33]: 100%
residual activity [34]: 100%
residual activity [35]: 100%
EC50 (NCI-H146): 70 nM (active)
residual activity [36]: 97%
